Measured values published in paper PMC7693160 (Pharmaceutics, 2020).
Several values for one entry are separate records, joined by “and”; a condition that tells them apart may be missing. Equal entries are not always repeated. Where two headings read alike, the source gives them in different places. Marks after values point to notes of the source that are not given here.

Columns and labels:
CYP2C9 1*/1* = settings: Recombinant CYP (fu,mic = 1), cited from earlier work
[1] = cited from earlier work
[2] = parameters: method as in earlier work; settings: 55 (55, 60); cited from earlier work
CYP2C9 = settings: cited from earlier work
Caco-2 cells = settings: cited from earlier work
CYP2C9 2*/2* = settings: Recombinant CYP (fu,mic = 1), cited from earlier work
[3] = cited from earlier work; remark: listed apart in the source
UGT2B7 = settings: Recombinant UGT; cited from earlier work
[4] = FLU po 50 mg s.d. + fluconazole po 200 mg q.d. x7, interval 2 h, CYP2C9 1*/1*, median
[5] = FLU po 50 mg s.d. + fluconazole po 200 mg q.d. x7, interval 2 h, CYP2C9 1*/3*
[6] = FLU po 50 mg s.d. + fluconazole po 200 mg q.d. x7, interval 2 h, CYP2C9 3*/3*, individual values (n=2)
[7] = FLU po 50 mg s.d. + fluconazole po 400 mg q.d. x7, interval 2 h, CYP2C9 1*/1*
[8] = FLU po 50 mg s.d. + fluconazole po 400 mg q.d. x7, interval 2 h, CYP2C9 1*/3*
[9] = FLU po 50 mg s.d. + fluconazole po 400 mg q.d. x7, interval 2 h, CYP2C9 3*/3*, individual values (n=2)
[10] = FLU po 50 mg s.d. + fluconazole po 400 mg q.d. x7, interval 2 h
[11] = FLU po 50 mg s.d. + fluconazole po 400 mg s.d., interval 2 h, ref 47
[12] = FLU po 50 mg s.d. + fluconazole po 400 mg s.d., interval 2 h, ref 48
[13] = FLU po 50 mg s.d. + rifampicin po 600 mg q.d. x5, interval 0 h, ref Daali et al.
[14] = FLU po 100 mg s.d. + fluconazole po 200 mg b.i.d. x2, interval 0.5 h, geometric mean, ref 44
[15] = FLU po 100 mg s.d. + fluconazole po 200 mg b.i.d. x2, interval 0.5 h, geometric mean, ref 45
[16] = FLU po 100 mg s.d. + fluconazole po 200 mg b.i.d. x2, interval 0.5 h, ref 46
[17] = 1st value, ref Lee et al. (2003) as printed
[18] = 2nd value, ref Lee et al. (2015) as printed
[19] = po sol s.d. 40 mg, CYP2C9 1*/1*
[20] = po sol s.d. 40 mg, CYP2C9 1*/3*
[21] = po tab (Froben) s.d. 100 mg, ref 4
[22] = po tab (Froben) s.d. 100 mg, ref 38
[23] = po tab s.d. 50 mg, CYP2C9 1*/1*
[24] = po tab s.d. 50 mg, CYP2C9 1*/1*, median
[25] = po tab s.d. 50 mg, CYP2C9 1*/2*
[26] = po tab s.d. 50 mg, CYP2C9 1*/3*
[27] = po tab s.d. 50 mg, CYP2C9 1*/3*, median
[28] = po tab s.d. 50 mg, CYP2C9 3*/3*, individual values (n = 2)

CC(C(=O)O)c1ccc(-c2ccccc2)c(F)c1 (centres unmarked) [flurbiprofen]
CYP2C9 1*/1*-Vmax (CYP2C9 1*/1*): 15.79 pmol/min/pmol CYP | Km (CYP2C9 1*/1*; read-out: CYP2C9 1*/1*-Km): 8.76 µM | Blood/plasma ratio [1]: 0.55 | Fraction unbound in plasma [1]: 0.01 | bound to plasma proteins [1]: > 99% | logPo:w [2]: 3.99 | CYP2C9 1*/2*-Vmax (CYP2C9 1*/2*): 11.53 pmol/min/pmol CYP | DDI AUC Ratio obs (CYP2C9; [4]): 2.02 ^a | DDI CL/F Ratio obs (CYP2C9; [4]): 0.5 ^a | DDI Cmax Ratio obs (CYP2C9; [4]): 1.03 ^a | DDI AUC Ratio obs (CYP2C9; [5]): 1.8 | DDI CL/F Ratio obs (CYP2C9; [5]): 0.56 | DDI Cmax Ratio obs (CYP2C9; [5]): 0.87 | DDI AUC Ratio obs (CYP2C9; [6]): 1.58 and 1.28 | DDI CL/F Ratio obs (CYP2C9; [6]): 0.75 and 0.66 | DDI Cmax Ratio obs (CYP2C9; [6]): 1.08 and 0.91 | DDI AUC Ratio obs (CYP2C9; [7]): 3.03 | DDI CL/F Ratio obs (CYP2C9; [7]): 0.31 | DDI Cmax Ratio obs (CYP2C9; [7]): 0.99 | DDI AUC Ratio obs (CYP2C9; [8]): 2.48 | DDI CL/F Ratio obs (CYP2C9; [8]): 0.44 | DDI Cmax Ratio obs (CYP2C9; [8]): 0.94 | DDI AUC Ratio obs (CYP2C9; [9]): 1.39 and 1.12 | DDI CL/F Ratio obs (CYP2C9; [9]): 1.00 and 0.66 | DDI Cmax Ratio obs (CYP2C9; [9]): 0.54 and 0.90 | DDI AUC Ratio obs (CYP2C9; [10]): 2.81 | DDI CL/F Ratio obs (CYP2C9; [10]): 0.35 | DDI Cmax Ratio obs (CYP2C9; [10]): 1.37 | DDI AUC Ratio obs (CYP2C9; [11]): 2.16 | DDI CL/F Ratio obs (CYP2C9; [11]): 0.46 | DDI Cmax Ratio obs (CYP2C9; [11]): 1.24 | DDI AUC Ratio obs (CYP2C9; [12]): 1.21 | DDI CL/F Ratio obs (CYP2C9; [12]): 0.67 | DDI Cmax Ratio obs (CYP2C9; [12]): 1.14 | DDI AUC Ratio obs (CYP2C9; [13]): 0.56 | DDI CL/F Ratio obs (CYP2C9; [13]): 1.85 | DDI Cmax Ratio obs (CYP2C9; [13]): 0.71 | DDI AUC Ratio obs (CYP2C9; [14]): 1.97 ^b | DDI Cmax Ratio obs (CYP2C9; [14]): 1.47 ^b | DDI AUC Ratio obs (CYP2C9; [15]): 1.71 ^b | DDI Cmax Ratio obs (CYP2C9; [15]): 1.16 ^b | DDI CL/F Ratio obs (CYP2C9; FLU po 100 mg s.d. + fluconazole po 200 mg b.i.d. x2, interval 0.5 h, ref 44): 0.5 | DDI CL/F Ratio obs (CYP2C9; FLU po 100 mg s.d. + fluconazole po 200 mg b.i.d. x2, interval 0.5 h, ref 45): 0.57 | DDI AUC Ratio obs (CYP2C9; [16]): 1.81 | DDI CL/F Ratio obs (CYP2C9; [16]): 0.55 | DDI Cmax Ratio obs (CYP2C9; [16]): 1.23 | Papp, Caco-2 (Caco-2 cells): 201 nm/s | CYP2C9 2*/2*-Vmax (CYP2C9 2*/2*): 10.04 pmol/min/pmol CYP | Km (CYP2C9 2*/2*; read-out: CYP2C9 2*/2*-Km): 10.4 µM | CYP2C9 1*/3*-Vmax (CYP2C9 1*/3*): 9.55 pmol/min/pmol CYP | observed decrease in CYP2C9 1*/3* clearance [3, 17]: about 37% | observed increase in AUC, CYP2C9 1*/3* [3, 17]: 1.62 fold | observed decrease in CYP2C9 1*/3* clearance [3, 18]: ~44% | observed increase in AUC, CYP2C9 1*/3* [3, 18]: 1.74 fold | observed decrease in clearance ([3]; CYP2C9 1*/2* individuals): about 27% | observed decrease in clearance ([3]; CYP2C9 1*/3* individuals): ~40% | Fox ([3]; PBPK input): 0.71 | Clrenal [3]: 0.066 L/h | steady-state volume of distribution (Vss) [3]: around 0.1 L/kg | fmCYP2C9 ([3]; contribution to overall metabolic clearance): 0.71 | CYP2C9 metabolic contribution ([3]; human, in vivo): at least 71% | absolute bioavailability ([3]; human, in vivo): ~ 95% | eliminated through metabolic oxidation to 4-hydroxy FLU ([3]; human, in vivo): > 71 % of the dose | AUCinf obs ([3]; iv s.d. 50 mg): 35.2 mg·h/L | fmCYP2C9 ([3]; metabolism by polymorphic CYP2C9): ≥ 0.71 | dose excreted into urine as acyl glucuronide of (R)-FLU ([3]; oral racemic FLU): 8.4% | dose excreted into urine as acyl glucuronide of (S)-FLU ([3]; oral racemic FLU): 7.3% | AUCinf obs ([3]; po orod s.d. 150 mg): 129.8 mg·h/L | Cmax obs ([3]; po orod s.d. 150 mg): 16.8 mg/L | AUCinf obs [3, 19]: 29.3 mg·h/L | CL/F obs [3, 19]: 1.39 L/h | Cmax obs [3, 19]: 5.54 mg/L | AUCinf obs [3, 20]: 47.6 mg·h/L | CL/F obs [3, 20]: 0.88 L/h | Cmax obs [3, 20]: 6.93 mg/L | AUCinf obs ([3]; po sol s.d. 67.9 mg): 55.1 mg·h/L | Cmax obs ([3]; po sol s.d. 67.9 mg): 10.8 mg/L | AUCinf obs ([3]; po sol s.d. 100 mg): 82.7 mg·h/L | CL/F obs ([3]; po sol s.d. 100 mg): 1.28 L/h | Cmax obs ([3]; po sol s.d. 100 mg): 14.2 mg/L | AUCinf obs ([3]; po tab (Ansaid) s.d. 100 mg): 80.5 mg·h/L | Cmax obs ([3]; po tab (Ansaid) s.d. 100 mg): 12.8 mg/L | AUCinf obs ([3]; po tab (Ansaid) s.d. 200 mg): 161.3 mg·h/L | CL/F obs ([3]; po tab (Ansaid) s.d. 200 mg): 1.32 L/h | Cmax obs ([3]; po tab (Ansaid) s.d. 200 mg): 21.4 mg/L | AUCinf obs ([3]; po tab (Ansaid) s.d. 300 mg): 233.9 mg·h/L | CL/F obs ([3]; po tab (Ansaid) s.d. 300 mg): 1.36 L/h | Cmax obs ([3]; po tab (Ansaid) s.d. 300 mg): 29.5 mg/L | AUCinf obs [3, 21]: 87.8 mg·h/L | CL/F obs [3, 21]: 1.27 L/h | Cmax obs [3, 21]: 13.2 mg/L | AUCinf obs [3, 22]: 82.3 mg·h/L | Cmax obs [3, 22]: 13.3 mg/L | AUCinf obs [3, 23]: 29.4 mg·h/L | CL/F obs [3, 23]: 1.77 L/h | Cmax obs [3, 23]: 5.38 mg/L | AUCinf obs [3, 24]: 30.8^a mg/L·h | CL/F obs [3, 24]: 1.6 ^a L/h | Cmax obs [3, 24]: 6.1 ^a mg/L | AUCinf obs [3, 25]: 40.7 mg·h/L | CL/F obs [3, 25]: 1.30 L/h | Cmax obs [3, 25]: 4.55 mg/L | AUCinf obs [3, 26]: 51.1 mg·h/L | CL/F obs [3, 26]: 1.00 L/h | Cmax obs [3, 26]: 5.42 mg/L | AUCinf obs [3, 27]: 53.7 ^a mg/L·h | CL/F obs [3, 27]: 0.9 ^a L/h | Cmax obs [3, 27]: 8.9 ^a mg/L | AUCinf obs [3, 28]: 85.8 mg·h/L and 119 mg·h/L | CL/F obs [3, 28]: 0.6 L/h and 0.4 L/h | Cmax obs [3, 28]: 8 mg/L and 9.4 mg/L | AUCinf obs ([3]; po tab s.d. 100 mg): 67.7 mg·h/L | CL/F obs ([3]; po tab s.d. 100 mg): 1.52 L/h | Cmax obs ([3]; po tab s.d. 100 mg): 12.9 mg/L | AUCinf obs ([3]; po tab s.d. 150 mg): 124.3 mg·h/L | Cmax obs ([3]; po tab s.d. 150 mg): 15.2 mg/L | fraction absorbed (fa) ([3]; small intestine): greater than 95% | Km (UGT2B7): 50.2 µM | UGT2B7-Vmax (UGT2B7): 119.7 pmol/min/mg protein
